Measurements as given in patent US20240269303A1, “CELL TARGETING CONSTRUCTS AND USES THEREOF” (Research Development Foundation, priority 2022, published 2024).
Square brackets hold non-standard residues; d marks the D form. Peptide text beside a SMILES is read from it. * marks the point of attachment. Dolaproine = CO[C@@H]([C@@H]1CCCN1)[C@@H](C)C(=O)O; Dil = CC[C@H](C)[C@H](NC)[C@@H](CC(=O)O)OC; X1 = C[C@@H](N*)[C@@H](O)c1ccccc1; NMeV = CN[C@H](C(=O)O)C(C)C

Experiments:
OVCAR8/LGR5 cells = experiment: Growth rate inhibition assay (CCK8, 120 h exposure); format: cell-based, human
HEK293/LGR5 cells = experiment: as above; format: cell-based, human
OVCAR8/EV cells = experiment: as above; format: cell-based, human; conditions: OVCAR8/EV (LGR5-poor) cells
LGR6 = target: T1, LGR6 (Homo sapiens, UniProt Q9HBX8); conditions: read-out: affinity; cited from earlier work
T1 sequence (Q9HBX8 25-967): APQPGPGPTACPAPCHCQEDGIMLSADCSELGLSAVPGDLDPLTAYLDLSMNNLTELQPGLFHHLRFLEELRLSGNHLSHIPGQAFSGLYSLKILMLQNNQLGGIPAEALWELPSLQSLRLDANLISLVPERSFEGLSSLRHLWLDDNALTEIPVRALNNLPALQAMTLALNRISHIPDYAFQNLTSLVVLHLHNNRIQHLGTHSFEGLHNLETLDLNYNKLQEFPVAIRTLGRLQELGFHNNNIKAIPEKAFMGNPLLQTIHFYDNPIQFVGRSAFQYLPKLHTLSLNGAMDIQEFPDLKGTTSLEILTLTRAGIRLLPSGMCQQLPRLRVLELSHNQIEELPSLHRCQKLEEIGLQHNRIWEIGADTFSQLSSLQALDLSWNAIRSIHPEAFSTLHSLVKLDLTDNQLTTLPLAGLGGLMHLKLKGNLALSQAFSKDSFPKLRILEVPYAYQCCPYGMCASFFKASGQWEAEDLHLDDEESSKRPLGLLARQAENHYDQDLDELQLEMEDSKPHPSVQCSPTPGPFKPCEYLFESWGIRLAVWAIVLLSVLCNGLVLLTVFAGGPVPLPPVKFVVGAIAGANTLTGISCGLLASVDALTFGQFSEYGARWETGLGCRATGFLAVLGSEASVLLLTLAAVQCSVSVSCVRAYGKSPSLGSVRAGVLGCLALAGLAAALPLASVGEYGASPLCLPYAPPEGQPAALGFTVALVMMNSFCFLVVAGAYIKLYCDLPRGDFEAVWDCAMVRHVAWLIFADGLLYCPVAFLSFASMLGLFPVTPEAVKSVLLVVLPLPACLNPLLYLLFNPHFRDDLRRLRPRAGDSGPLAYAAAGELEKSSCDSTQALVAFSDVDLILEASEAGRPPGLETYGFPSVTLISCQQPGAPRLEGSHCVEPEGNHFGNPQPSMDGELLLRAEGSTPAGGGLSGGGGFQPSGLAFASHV

LGR5 = target: T2, LGR5 (Homo sapiens, UniProt O75473); conditions: read-out: affinity; cited from earlier work
T2 sequence (O75473 22-907): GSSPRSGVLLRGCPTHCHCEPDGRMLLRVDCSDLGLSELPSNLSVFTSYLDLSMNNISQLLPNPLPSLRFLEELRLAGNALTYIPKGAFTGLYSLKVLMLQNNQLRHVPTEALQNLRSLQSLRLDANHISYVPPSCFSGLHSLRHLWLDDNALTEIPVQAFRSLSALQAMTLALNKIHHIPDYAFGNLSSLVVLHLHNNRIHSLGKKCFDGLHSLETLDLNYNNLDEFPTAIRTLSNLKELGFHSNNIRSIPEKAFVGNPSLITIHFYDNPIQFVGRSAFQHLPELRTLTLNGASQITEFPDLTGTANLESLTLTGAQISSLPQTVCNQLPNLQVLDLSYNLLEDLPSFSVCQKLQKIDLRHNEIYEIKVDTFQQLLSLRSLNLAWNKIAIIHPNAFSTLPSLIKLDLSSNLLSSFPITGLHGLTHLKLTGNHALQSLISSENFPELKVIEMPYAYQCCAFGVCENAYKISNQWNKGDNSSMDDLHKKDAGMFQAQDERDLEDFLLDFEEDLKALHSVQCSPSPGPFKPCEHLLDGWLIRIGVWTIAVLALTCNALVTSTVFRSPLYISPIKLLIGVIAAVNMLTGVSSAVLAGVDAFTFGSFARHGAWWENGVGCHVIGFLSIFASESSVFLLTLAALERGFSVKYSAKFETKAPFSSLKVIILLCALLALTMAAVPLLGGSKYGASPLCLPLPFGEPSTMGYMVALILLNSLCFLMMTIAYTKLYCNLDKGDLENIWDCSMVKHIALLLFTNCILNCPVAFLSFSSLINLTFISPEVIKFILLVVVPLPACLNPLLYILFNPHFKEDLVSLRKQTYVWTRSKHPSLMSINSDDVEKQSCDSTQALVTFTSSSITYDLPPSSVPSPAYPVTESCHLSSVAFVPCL

Row | Compound | OVCAR8/LGR5 cells more resistant than OVCAR8/EV cells (OVCAR8/LGR5 cells) | IC50 (OVCAR8/LGR5 cells; OVCAR8/LGR5 (LGR5-rich) cells, 120 h exposure, CCK8) | HEK293/LGR5 cells more resistant than HEK293/EV cells (HEK293/LGR5 cells) | IC50 (OVCAR8/EV cells) | Kd (LGR6) | Kd (LGR5)
1 | CC[C@H](C)[C@@H]([C@@H](CC(=O)N1CCC[C@H]1[C@H](OC)[C@@H](C)C(=O)N[C@H](C)[C@@H](O)c1ccccc1)OC)N(C)C(=O)[C@@H](NC(=O)[C@@H](NC)C(C)C)C(C)C [free MMAE, Monomethyl auristatin E, reference compound] (H-[NMeV]V[Dil][Dolaproine]-X1) | 1.5 fold | 129 nM | 1.6 fold | 85 nM | – | –
2 | Fu1-Fu2 domain of RSPO1: receptor-binding Fu1-Fu2 domain of human RSPO1 | – | – | – | – | ~3 nM | ~3 nM
